For 36 molecules, IC50 results are on record in patent US7390833B2, “Method for treating ADAMTS-5-associated disease” (Wyeth, priority 2003, dated 2008).

A value given as a limit tells only on which side of the number the result lay.

Assay [1] addresses T1, ADAMTS-4 (Agg-1) (Homo sapiens, UniProt O75173).
T1 sequence (O75173 213-837): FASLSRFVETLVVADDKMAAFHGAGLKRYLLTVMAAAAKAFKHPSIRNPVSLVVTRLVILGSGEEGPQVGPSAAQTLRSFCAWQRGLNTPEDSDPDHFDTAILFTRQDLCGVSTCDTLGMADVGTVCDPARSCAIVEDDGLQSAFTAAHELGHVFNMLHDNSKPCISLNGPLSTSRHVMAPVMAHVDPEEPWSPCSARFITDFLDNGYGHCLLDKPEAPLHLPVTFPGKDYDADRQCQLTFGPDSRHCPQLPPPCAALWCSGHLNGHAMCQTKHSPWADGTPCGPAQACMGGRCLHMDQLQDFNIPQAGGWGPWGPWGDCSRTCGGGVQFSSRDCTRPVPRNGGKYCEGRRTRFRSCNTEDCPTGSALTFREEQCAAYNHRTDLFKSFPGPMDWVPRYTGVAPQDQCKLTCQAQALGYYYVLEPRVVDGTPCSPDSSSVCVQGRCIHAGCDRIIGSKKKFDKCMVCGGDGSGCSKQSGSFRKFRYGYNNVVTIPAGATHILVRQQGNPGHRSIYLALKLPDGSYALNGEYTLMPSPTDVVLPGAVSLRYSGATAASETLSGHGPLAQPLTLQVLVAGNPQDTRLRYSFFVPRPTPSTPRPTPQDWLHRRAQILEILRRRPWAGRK
The experiment in a line: Inhibition of aggrecanase activity of ADAMTS-4 (Agg-1), continuous fluorescent quenched-peptide assay.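 Note: purified enzyme preincubated 10 min with inhibitor at room temperature, then initial substrate cleavage rate (RFU/min) read by fluorescence plate reader versus the uninhibited rate.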 Format: biochemical. To be noted: concentration that inhibits 50% of the aggrecanase activity of ADAMTS-4 (Agg-1).
Experimental: A continuous assay was used in which the substrate upon which Agg-1 and Agg-1 acts is a synthetic peptide containing a fluorescent group that is quenched by energy transfer. […] The initial rates of the reaction are compared to the initial rates of reactions containing the biaryl sulfonamide compounds in order to assess the inhibitor potency of the compounds.
The assay buffer (pH 7.4) consisted of 50 mM Hepes, 100 mM NaCl, 5 mM CaCl2, 0.1% CHAPS, 5% glycerol. Each well of black polystyrene 96-well or 384-well plates contained a reaction consisting of assay buffer, purified Agg-2 (diluted with assay buffer), and varied concentrations of inhibitor (prepared by serial dilution in DMSO in 96-well polypropylene plates). The plates were then incubated at room temperature for 10 minutes. […] The initial rates of the cleavage reactions were determined at room temperature with a fluorescence plate reader immediately after substrate addition.

The target in assay [2] is T2, ADAMTS-5 (Agg-2), purified recombinant human Aggrecanase-2 (Ag2t-Phe628-Strep) (Homo sapiens, UniProt Q9UNA0).
T2 construct: the form used is denoted as Ag2t-Phe628-Strep (MW=41,737)
T2 sequence (Q9UNA0 262-628): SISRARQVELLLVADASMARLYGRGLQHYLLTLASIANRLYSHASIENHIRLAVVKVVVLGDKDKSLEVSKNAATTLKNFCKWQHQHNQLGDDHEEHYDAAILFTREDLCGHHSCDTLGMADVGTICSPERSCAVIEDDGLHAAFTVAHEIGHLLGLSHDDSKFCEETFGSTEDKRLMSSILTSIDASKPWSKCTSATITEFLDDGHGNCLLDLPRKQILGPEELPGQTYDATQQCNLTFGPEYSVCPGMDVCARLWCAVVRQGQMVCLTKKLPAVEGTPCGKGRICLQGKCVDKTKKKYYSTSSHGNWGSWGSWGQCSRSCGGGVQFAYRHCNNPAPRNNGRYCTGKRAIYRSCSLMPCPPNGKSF
Briefly: Inhibition of aggrecanase activity of ADAMTS-5 (Agg-2), continuous fluorescent quenched-peptide assay (WAKB-5 substrate). The assay is classed as biochemical. To be noted: concentration that inhibits 50% of the aggrecanase activity of ADAMTS-5 (Agg-2); substrate 25 μM, pH 7.4, room temperature. As to the method:
The biaryl sulfonamide compounds of the present invention were tested for their ability to inhibit the aggrecanase activity of ADAMTS-4 (Agg-1) and ADAMTS-5 (Agg-2).
A continuous assay was used in which the substrate upon which Agg-1 and […] acts is a synthetic peptide containing a fluorescent group that is quenched by energy transfer. Cleavage of the peptide by the aggrecanase enzyme results in a large increase in fluorescence. The initial rates of the reaction are compared to the initial rates of reactions containing the biaryl sulfonamide compounds in order to assess the inhibitor potency of the compounds.
The source of enzyme in the assay is purified recombinant human Aggrecanase-2. More specifically, the form used is denoted as Ag2t-Phe628-Strep (MW=41,737). This form is truncated relative to the full-length enzyme and contains an affinity tag. Aliquots of this enzyme were stored at −80° C. in 25 mM Tris (pH 8.0), 100 mM NaCl, 5 mM CaCl2, 10 μM ZnCl2, 10% glycerol.
The substrate in the assay is a synthetic peptide that is designed after a portion of brevican, one of the naturally occurring substrates of Aggrecanase-2. […] WAKB-5 (mass=1740) was custom synthesized by AnaSpec, Inc. (San Jose, Calif.) and was >95% pure based on HPLC analysis. […] Stock solutions of the substrate were prepared with MilliQ water and aliquots were stored at −80° C. The concentration of this substrate stock was spectrophotometrically determined using the extinction coefficient at 354 nm of 18,172 M^−1 cm^−1.
The assay buffer (pH 7.4) consisted of 50 mM Hepes, 100 mM NaCl, 5 mM CaCl2, 0.1% CHAPS, 5% glycerol. Each well of black polystyrene 96-well or 384-well plates contained a reaction consisting of assay buffer, purified Agg-2 (diluted with assay buffer), and varied concentrations of inhibitor (prepared by serial dilution in DMSO in 96-well polypropylene plates). The plates were then incubated at room temperature for 10 minutes. The enzymatic reactions were initiated by adding substrate to a final concentration of 25 μM and were mixed by pipetting up and down. The initial rates of the cleavage reactions were determined at room temperature with a fluorescence plate reader immediately after substrate addition.
Analysis of the results was conducted by generating a plot of time vs. RFU for each sample. This was used as the “progress curve” of the reaction. The slope for the portion of the progress curve that is most linear was then determined. This slope (RFU/min) was used as the initial rate of the reaction. Plots of the inhibitor concentration vs. the initial cleavage rate were then fit to the following equation: y=Vmax*(1−(x^n/(K^n+x^n))), whereby x=inhibitor concentration, y=initial rate, Vmax=initial rate in the absence of inhibitor, n=slope factor, and K=IC50 for the inhibition curve.

As for `COc1cc(COc2ccc(-c3ccc(S(=O)(=O)N[C@@H](C(=O)O)C(C)C)cc3)cc2)cc(OC)c1`, the concentration for half-maximal inhibition (IC50) (in general, the point on the concentration scale where inhibition reaches its midpoint) was found to be 1900 nM in assay [1] and 3200 nM in assay [2].

`CC(C)[C@@H](NS(=O)(=O)c1ccc(-c2ccc(COc3cccc(C(=O)c4ccccc4)c3)cc2)cc1)C(=O)O`: the 50% inhibitory concentration (IC50) in assay [1] was 200 nM; in assay [2], 3400 nM.

Take `Cc1cc(-c2ccc(COc3ccc4c(c3)CCCC4=O)cc2)ccc1S(=O)(=O)N[C@@H](C(=O)O)C(C)C`: the IC50 in assay [1] is 900 nM; in assay [2] it was 11200 nM. As to `CC(C)[C@@H](NS(=O)(=O)c1ccc(-c2ccc(OCc3ccc4c(c3)OCCO4)cc2)cc1)C(=O)O`, the figures for the IC50 in assay [1] and in assay [2] were 1400 nM and 3000 nM, respectively. For `CC(C)[C@@H](NS(=O)(=O)c1ccc(-c2ccc(COc3cccc(C(=O)C4CCCCC4)c3)cc2)cc1)C(=O)O` the same measures were 400 nM and 2400 nM. For `CC(C)[C@@H](NS(=O)(=O)c1ccc(-c2ccc(COc3ccc(C(=O)N4CCCC4)cc3)cc2)cc1)C(=O)O` the same measures were 1900 nM and 67000 nM. For `COc1cccc(OCc2ccc(-c3ccc(S(=O)(=O)N[C@@H](C(=O)O)C(C)C)cc3)cc2)c1` the same measures were 1800 nM and 5800 nM.

Turning to `CC(C)[C@@H](NS(=O)(=O)c1ccc(-c2ccc(COc3cccc(O)c3)cc2)cc1)C(=O)O`, the IC50 in assay [1] was determined as 1100 nM; in assay [2], 13000 nM. For `COc1ccc(COc2ccc(-c3ccc(S(=O)(=O)N[C@@H](C(=O)O)C(C)C)cc3)cc2)cc1`, the figures for the IC50 in assay [1] and in assay [2] were 1900 nM and 6300 nM, respectively.

As to `Cc1cccc(Oc2ccc(OCc3ccc(-c4ccc(S(=O)(=O)N[C@@H](C(=O)O)C(C)C)c(Cl)c4)cc3)cc2)n1`, the IC50 in assay [1] came to 900 nM; in assay [2] it was 3200 nM. For `CC(C)[C@@H](NS(=O)(=O)c1ccc(-c2ccc(COc3ccc(NC(=O)OC(C)(C)C)cc3)cc2)cc1)C(=O)O` the same measures were 600 nM and 5400 nM.

On to `CC(C)[C@@H](NS(=O)(=O)c1ccc(-c2ccc(COc3ccc(C(=O)c4ccccc4)cc3)cc2)cc1)C(=O)O`, for which the half-maximal inhibitory concentration (IC50) is 200 nM in assay [1] and 2000 nM in assay [2].

On to `CC(=O)c1cccc(OCc2ccc(-c3ccc(S(=O)(=O)N[C@@H](C(=O)O)C(C)C)cc3)cc2)c1`, for which the figures for the IC50 in assay [1] and in assay [2] were 1000 nM and 12600 nM, respectively. For `CC(C)[C@@H](NS(=O)(=O)c1ccc(-c2ccc(COc3ccc(Oc4ccccc4)cc3)cc2)cc1)C(=O)O` the same measures were 400 nM and 400 nM.

As to `O=C(O)CC[C@H](NC(=O)c1ccc(-c2ccccc2)cc1)C(=O)NCc1ccc(F)cc1`, the IC50 stood at 200 nM in assay [1] and 2800 nM in assay [2].

Take `CC(C)[C@@H](NS(=O)(=O)c1ccc(-c2ccc(COc3ccc(C4CCCC4)cc3)cc2)cc1)C(=O)O`: the concentration for half-maximal inhibition (IC50) in assay [1] was 400 nM; in assay [2] it was 800 nM. For `CC(C)[C@@H](NS(=O)(=O)c1ccc(-c2ccc(COc3ccc(Oc4ccccc4)cc3)cc2)cc1F)C(=O)O` the same measures were 100 nM and above 200000 nM. For `Cc1cccc(Oc2ccc(OCc3ccc(-c4ccc(S(=O)(=O)N[C@@H](C(=O)O)C(C)C)cc4)cc3)cc2)n1` the same measures were 700 nM and 4000 nM. For `CC(C)[C@@H](NS(=O)(=O)c1ccc(-c2ccc(COc3ccc(F)cc3)cc2)cc1)C(=O)O` the same measures were 1700 nM and 11300 nM.

For the molecule `CC(C)[C@@H](NS(=O)(=O)c1ccc(-c2ccc(COc3cccc4[nH]ccc34)cc2)cc1)C(=O)O`, the values for the IC50 in assay [1] and in assay [2] were 1900 nM and 12000 nM, respectively. Take `CC(C)[C@@H](NS(=O)(=O)c1ccc(-c2ccc(COc3ccc(C(=O)C4CCCCC4)cc3)cc2)cc1)C(=O)O`: the half-inhibitory concentration (IC50) in assay [1] is 100 nM; in assay [2] it was 2600 nM. `CC(C)[C@@H](NS(=O)(=O)c1ccc(-c2ccc(COc3ccc(C(=O)c4ccc(F)cc4)cc3)cc2)cc1)C(=O)O` [drawing 171]: the IC50 in assay [1] was determined as 100 nM; in assay [2], 2500 nM.

On to `CC(C)[C@@H](NS(=O)(=O)c1ccc(-c2ccc(COc3ccc(Oc4ccccn4)cc3)cc2)cc1)C(=O)O`, for which the half-maximal inhibitory concentration (IC50) in assay [1] came to 900 nM; in assay [2], 10600 nM.

With `CC(C)C(=O)c1ccc(OCc2ccc(-c3ccc(S(=O)(=O)N[C@@H](C(=O)O)C(C)C)cc3)cc2)cc1` [drawing 151], the IC50 in assay [1] came to 100 nM; in assay [2], 8400 nM. Consider `CC(C)[C@@H](NS(=O)(=O)c1ccc(-c2ccc(COc3cccc(O)n3)cc2)cc1)C(=O)O`, for which the concentration for half-maximal inhibition (IC50) is 400 nM in assay [1] and 6500 nM in assay [2]. `CC(C)[C@@H](NS(=O)(=O)c1ccc(-c2ccc(COc3cccc(F)c3)cc2)cc1)C(=O)O`: the IC50 in assay [2] came to 8200 nM. For the molecule `CC(C)[C@@H](NS(=O)(=O)c1ccc(-c2ccc(COc3ccc(C(=O)c4ccc(F)cc4)cc3)cc2)cc1)C(=O)O` [drawing 172], the concentration for half-maximal inhibition (IC50) in assay [1] is 100 nM; in assay [2], 2400 nM. `CC(=O)c1ccc(OCc2ccc(-c3ccc(S(=O)(=O)N[C@@H](C(=O)O)C(C)C)cc3)cc2)cc1`: the IC50 was determined as 400 nM in assay [1] and 7000 nM in assay [2]. On to `Cc1c(COc2ccc(-c3ccc(S(=O)(=O)N[C@@H](C(=O)O)C(C)C)cc3)cc2)oc2ccccc12`, for which the IC50 in assay [1] turned out to be 1100 nM; in assay [2], 3400 nM. For `COc1ccc(C(=O)c2ccc(OCc3ccc(-c4ccc(S(=O)(=O)N[C@@H](C(=O)O)C(C)C)cc4)cc3)cc2)cc1` the same measures were 300 nM and above 100000 nM. With `CC(C)[C@@H](NS(=O)(=O)c1ccc(-c2ccc(COc3ccc4c(c3)CCCC4=O)cc2)cc1F)C(=O)O`, the IC50 in assay [1] is 200 nM; in assay [2] it was 6600 nM. For `CC(C)[C@@H](NS(=O)(=O)c1ccc(-c2ccc(COc3ccc4c(c3)CCC4)cc2)cc1)C(=O)O` the same measures were 400 nM and 2400 nM. For `CC(C)[C@@H](NS(=O)(=O)c1ccc(-c2ccccc2)cc1)C(=O)O` the same measures were 2600 nM and 5000 nM. For the molecule `CC(C)[C@@H](NS(=O)(=O)c1ccc(-c2ccc(COc3ccc4c(c3)CCCC4=O)cc2)cc1)C(=O)O`, the half-maximal inhibitory concentration (IC50) in assay [1] was 200 nM; in assay [2], 7500 nM. As to `CC(C)C(=O)c1ccc(OCc2ccc(-c3ccc(S(=O)(=O)N[C@@H](C(=O)O)C(C)C)cc3)cc2)cc1` [drawing 152], the IC50 amounted to 100 nM in assay [1] and 8400 nM in assay [2]. For `Cc1cccc(Oc2ccc(OCc3ccc(-c4ccc(S(=O)(=O)N[C@@H](C(=O)O)C(C)C)c(F)c4)cc3)cc2)n1` the same measures were 900 nM and 3500 nM.
